{
  "source": "patent EP0412508A1",
  "about": "“Analogues of vasopressin, their preparation and pharmaceutical use” (CESKOSLOVENSKA AKADEMIE VED, priority 1989, dated 1991)",
  "key": {"Ratten [1]": {"test_system": "Ratten", "experiment": "uterotonic (agonistic or inhibitory) activity according to Holton, modified by Munsick (printed 'Munich')", "conditions": "inhibitory activity expressed as pA2, rat", "from_the_text": "(§1) Die biologische Wirksamkeit wurde an Ratten bestimmt: Die uterotonische (agonistische oder inhibitorische) Wirksamkeit wurde nach Holton (Holton, J. Brit. J. Pharmacol. 3, 328, 1948) in der Bearbeitung nach Munich (Endocrinology 66, 451, 1960) bestimmt; die inhibitorische Aktivität wurde ausgedrückt als pA2 (Eggen et al., J. Gen. Physiol. 56, 250, 1970), die pressorische Wirksamkeit wurde an despinalisierten Rattenmännchen nach Krejci et al., (Brit. J. Pharm. Chemother. 30, 497, 1967) bestimmt, die antidiuretische nach Burn (Burn et al., Biol. Stand., Oxford Univ. Press London 1950). Als Standard wurde für den antidiuretischen Test das [1-Desamino,8-D-Arginin]-Vasopressin (dDAVP) verwendet. Eine Übersicht der biologischen Wirksamkeiten ist der Tabelle 1 zu entnehmen."}, "[2]": {"test_system": "despinalisierten Rattenmännchen", "experiment": "pressor activity on despinalised male rats according to Krejci et al.", "assay_type": "in vivo, Ratten", "conditions": "agonistic activity", "from_the_text": "as §1"}, "Ratten [3]": {"test_system": "Ratten", "experiment": "antidiuretic activity according to Burn, standard dDAVP", "assay_type": "in vivo", "conditions": "rat; relative to standard [1-Desamino,8-D-Arginin]-Vasopressin (dDAVP)", "from_the_text": "as §1"}},
  "data": [
    {"substance": "[2-p-Methyl-phenylalanin,8-D-Homoarginin]-Vasopressin", "values": [
      {"measurement": "Uterotonische Wirksamkeit, pA₂", "setting": "Ratten [1]", "result": "pA₂ = 6,85"},
      {"measurement": "Pressorische Wirksamkeit", "setting": "[2]", "result": "0,04 IU/mg"},
      {"measurement": "Antidiuretische Wirksamkeit (% dDAVP)", "setting": "Ratten [3]", "result": "< 0,1 % dDAVP"}
    ]}
  ]
}
